Measured values as given in patent US9649381B2, “Transporter protein-coupled nanodevices for targeted drug delivery” (Wayne State University, priority 2013, dated 2017).

Tests used:
C2Hx rats = experiment: EMG recording of diaphragm recovery in C2Hx rats after injection into the paralyzed hemidiaphragm; format: in vivo, rat
From the text: In one case, rats with hemisection at C2Hx, hereafter “C2Hx rats,” have undergone surgical treatment to disrupt the bulbospinal pathway from the rVRG to the PN, the primary source for descending respiratory drive. Paralysis of the ipsilateral diaphragm muscle in C2Hx confirmed by electomygram (EMG). In such rats, the latent crossed phrenic pathway remains intact, as axons decussate caudal to injury.
In one example, a nanodevice with a targeting portion of WGA-HRP and a molecule to be delivered of pro-THP, the pro-THP being bound to the connecting portion by a slow drug release linker, was administered by injection into the paralyzed hemidiaphragms of a cohort of 11 C2-hemisected rats. About 50 μl of the nanodevice, which contained about 0.275 μg of pro-THP, was injected. Five 10 μl injections were conducted at even spatial intervals to spread the conjugate throughout the hemidiaphragm. This constitutes a single round of injections and thus considered to be a one-time, single-injection type of treatment.
FIG. 3 illustrates a trial of C2Hx rats that have been treated with a WGA-HRP/gold/pro-theophylline nanodevice. In each plot, the Y-axis 301a/b/c/d represents a voltage signal and the X-axis 302/a/b/c/d represents time, increasing from left to right. Two different types of plots are shown in FIG. 3; FIG. 3A-C are EMG recordings and FIG. 3D is a phrenic nerve recording. […]

[1] = tested on: rat spinal cord injury model animals; experiment: Chronic systemic drug administration, persistence of hemidiaphragm recovery in spinal cord injury model animals; format: in vivo; conditions: multiple systemic administrations over 3 days
From the text: Chronic administrations of theophylline, however, induce plasticity in the respiratory pathways which results in recovery that persists for days. Specifically, three days of orally administered theophylline three times per day (for a total of nine doses) was sufficient to bring about and maintain respiratory recovery that persisted for about 3 days, about 7 days, about 12 days, and about 30 days after the last drug administration in separate groups of animals.
Theophylline is both an adenosine receptor antagonist and a phosphodiesterase (PDE) inhibitor. Chronic administration of rolipram (a PDE-4 specific inhibitor), pentoxifylline (a general PDE inhibitor), or DPCPX (an adenosine A1 receptor antagonist) also induce persistent functional recovery of a paralyzed hemidiaphragm in rat spinal cord injury model animals for as long as 10 days, the longest interval studied, after the animal is last exposed to the drugs. Although rolipram and pentoxifylline have been approved for clinical use, these “first generation” PDE inhibitors can induce the same side effects as theophylline, including nausea and vomiting.

[2] = tested on: patients with cervical spinal cord injury; conditions: cited from earlier work

SMILES | dosage required for recovery in a rat (C2Hx rats; single administration, studies like FIG. 3A-D) [microgram] | recovery after multiple systemic administrations [1] | amount of theophylline required to realize recovery (C2Hx rats; C2Hx rats, systemic treatment) [mg/kg] | left diaphragm EMG activity ([2]; patient with asymmetrical cervical spinal cord injury, acute and chronic theophylline) | increase in diaphragm EMG activity, maximum ([2]; tetraplegic patient, ventilator dependent, intravenous, increasing doses over one day, therapeutic levels) [%]
CCCn1c(=O)c2[nH]c(C3CCCC3)nc2n(CCC)c1=O [DPCPX, 1,3-dipropyl-8-cyclopentylxanthine] | 0.093 | – | – | – | –
Cn1c(=O)c2[nH]cnc2n(C)c1=O [theophylline] | – | long-lasting recovery | 15 | markedly increased | 50
